Assay results published in patent US10294248B2, “Beta-lactamase inhibitors” (VenatoRx Pharmaceuticals, Inc., priority 2013, dated 2019).

How the values were obtained:
[1] = target: T1, SHV-5 β-lactamase (Class A ESBL) (Klebsiella pneumoniae, UniProt P0A3M1); assay: β-Lactamase inhibition, SHV-5; format: biochemical
T1 construct: made in house; host or cells: E. coli BL21(DE3)
How it was run: (§1)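 Untagged enzyme from E. coli BL21(DE3), purified by Capto S then Superdex 75; 15 min 37 °C preincubation with inhibitor; KPC-2 read with imipenem at 300 nm, SHV-5 with cefotaxime at 260 nm, OXA-1 with nitrocefin 100 μM final at 486 nm; 10 min kinetic read; IC50 vs uninhibited wells.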

[2] = target: T2, KPC-2 β-lactamase (Class A carbapenemase) (Klebsiella pneumoniae, UniProt Q9F663); assay: β-Lactamase inhibition, KPC-2; format: biochemical; details: imipenem substrate, 300 nm; 15 min preincubation at 37° C., PBS pH 7.4
T2 construct: made in house; host or cells: E. coli BL21(DE3)
T2 sequence (Q9F663 25-293, looked up): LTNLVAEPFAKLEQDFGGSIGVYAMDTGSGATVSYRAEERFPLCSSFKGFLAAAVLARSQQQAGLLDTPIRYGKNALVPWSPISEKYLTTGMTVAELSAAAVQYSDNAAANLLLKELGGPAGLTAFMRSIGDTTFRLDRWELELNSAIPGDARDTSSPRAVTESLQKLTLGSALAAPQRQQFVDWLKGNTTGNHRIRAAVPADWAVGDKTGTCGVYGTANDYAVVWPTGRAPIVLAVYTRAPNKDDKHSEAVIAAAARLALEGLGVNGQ
How it was run: as §1

[3] = target: T3, VIM-2 metallo-β-lactamase (Class B) (Pseudomonas aeruginosa, UniProt Q9K2N0); assay: β-Lactamase inhibition, VIM-2; format: biochemical; details: nitrocefin 100 μM, 486 nm; 15 min preincubation at 37° C., PBS pH 7.4
T3 construct: made in house; host or cells: E. coli BL21(DE3)
How it was run: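 Nitrocefin hydrolysis (100 μM final, A486 read for 10 min) by purified VIM-2 after a 15-min, 37° C enzyme–inhibitor preincubation. IC50 is the concentration halving initial hydrolysis rate, derived from percent inhibition against no-inhibitor wells.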

[4] = target: T4, p99 AmpC β-lactamase (Class C) (Enterobacter cloacae, UniProt P05364); assay: β-Lactamase inhibition, p99 AmpC; format: biochemical
T4 construct: made in house; host or cells: E. coli BL21(DE3)
T4 sequence (P05364 21-381): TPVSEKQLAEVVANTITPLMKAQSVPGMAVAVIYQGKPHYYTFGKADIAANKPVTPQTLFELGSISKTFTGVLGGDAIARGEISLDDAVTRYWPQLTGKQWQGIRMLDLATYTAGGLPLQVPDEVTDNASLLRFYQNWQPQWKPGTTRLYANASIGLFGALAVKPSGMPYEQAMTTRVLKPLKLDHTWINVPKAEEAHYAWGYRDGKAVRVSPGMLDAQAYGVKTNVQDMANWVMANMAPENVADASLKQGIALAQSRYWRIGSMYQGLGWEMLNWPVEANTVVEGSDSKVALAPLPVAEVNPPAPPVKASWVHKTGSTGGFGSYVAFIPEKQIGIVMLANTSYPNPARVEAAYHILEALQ

[5] = target: T5, OXA-1 β-lactamase (Class D oxacillinase) (Escherichia coli, UniProt P13661); assay: β-Lactamase inhibition, OXA-1; format: biochemical; details: nitrocefin 100 μM, 486 nm; 15 min preincubation at 37° C., PBS pH 7.4
T5 construct: made in house; host or cells: E. coli BL21(DE3)
T5 sequence (P13661 26-276): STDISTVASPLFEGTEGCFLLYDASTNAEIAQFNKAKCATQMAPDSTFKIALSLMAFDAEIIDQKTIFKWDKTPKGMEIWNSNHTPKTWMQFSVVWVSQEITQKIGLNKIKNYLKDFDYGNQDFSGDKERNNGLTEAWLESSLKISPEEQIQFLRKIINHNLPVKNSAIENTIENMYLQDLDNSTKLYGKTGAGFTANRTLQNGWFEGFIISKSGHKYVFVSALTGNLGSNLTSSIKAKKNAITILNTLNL
How it was run: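 Compounds are mixed with purified, untagged recombinant β-lactamase and held 15 min at 37 °C. Substrate is then added: nitrocefin (100 μM final) for OXA-1, imipenem for KPC-2, cefotaxime for SHV-5. Absorbance is followed immediately, and percent inhibition per concentration gives the IC50.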

[6] = system: E. coli ESBL4 expressing CTX-M-15; assay: Broth microdilution MIC, E. coli ESBL4 CTX-M-15; format: cell-based; details: fixed 4 μg/mL ceftazidime; CAMHB, 16-20 hours at 37° C.
How it was run: (§2)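 Following CLSI broth microdilution, β-lactamase-producing strains grown 3–5 h were exposed in CAMHB to 2-fold dilutions of test compound (32 to 0.25 μg/mL final). A static 4 μg/mL β-lactam overlay was added. After 16–20 h at 37° C, MIC was scored by eye.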

[7] = system: E. cloacae 144200 expressing Class C P99 AmpC; assay: Broth microdilution MIC, E. cloacae 144200 p99 AmpC; format: cell-based; details: fixed 4 μg/mL ceftazidime; CAMHB, 16-20 hours at 37° C.
How it was run: as §2

[8] = system: K. pneumoniae 156319 expressing KPC-3; assay: Broth microdilution MIC, K. pneumoniae 156319 KPC-3; format: cell-based; details: fixed 4 μg/mL meropenem; CAMHB, 16-20 hours at 37° C.
How it was run: as §2

[9] = system: P. aeruginosa Ps296 expressing VIM-2; assay: Broth microdilution MIC, P. aeruginosa Ps296 VIM-2; format: cell-based; details: fixed 4 μg/mL meropenem; CAMHB, 16-20 hours at 37° C.
How it was run: as §2

[10] = system: K. pneumoniae A-1797 expressing KPC-2 and VIM-4; assay: Broth microdilution MIC, K. pneumoniae A-1797 KPC-2/VIM-4; format: cell-based; details: fixed 4 μg/mL meropenem; CAMHB, 16-20 hours at 37° C.
How it was run: as §2

[11] = system: S. aureus MSSA-7 producing penicillinase PC-1; assay: Broth microdilution MIC, S. aureus MSSA-7 PC-1; format: cell-based; details: fixed 4 μg/mL piperacillin; CAMHB, 16-20 hours at 37° C.
How it was run: as §2

T1 sequence (P0A3M1 22-286): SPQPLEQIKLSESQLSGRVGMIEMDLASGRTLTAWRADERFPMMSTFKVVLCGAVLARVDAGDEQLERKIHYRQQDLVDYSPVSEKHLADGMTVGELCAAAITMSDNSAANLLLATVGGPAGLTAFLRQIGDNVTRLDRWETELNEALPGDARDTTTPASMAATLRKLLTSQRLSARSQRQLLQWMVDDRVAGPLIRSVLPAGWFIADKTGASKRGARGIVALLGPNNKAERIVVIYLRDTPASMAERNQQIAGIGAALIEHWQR

Row | Structure (SMILES) | IC50 [1] | IC50 [2] | IC50 [3] | IC50 [4] | IC50 [5] | MIC of example compound in presence of fixed β-lactam: Fixed CAZ, E. coli ESBL4 CTX-M-15 [6] | MIC of example compound in presence of fixed β-lactam: Fixed CAZ, E. cl. 144200 p99 AmpC [7] | MIC of example compound in presence of fixed β-lactam: Fixed Mero, K. P. 156319 KPC-3 [8] | MIC of example compound in presence of fixed β-lactam: Fixed Mero, P. aerug. Ps296 VIM-2 [9] | MIC of example compound in presence of fixed β-lactam: Fixed Mero, K. P. A-1797 KPC-2 VIM-4 [10] | MIC of example compound in presence of fixed β-lactam: Fixed Pip, S. aureus MSSA-7 PC-1 [11]
1 | NCC1CCCN(CC(=O)N[C@H]2Cc3cccc(C(=O)O)c3OB2O)C1 (stereo partly drawn) [Example 19, 3-[2-(3-Aminomethyl-piperidin-1-yl)-acetylamino]-2-hydroxy-3,4-dihydro-2H-benzo[e][1,2]oxaborinine-8-carboxylic acid] | < 100 nM | 100 to 1000 nM | 10000 to 100000 nM | < 100 nM | < 100 nM | C (the MIC in the presence of <4 μg/mL of a β-lactamase inhibitor) | C (the MIC in the presence of <4 μg/mL of a β-lactamase inhibitor) | B (the MIC in the presence of between 8 and 32 μg/mL of a β-lactamase inhibitor) | A (an MIC of the fixed β-lactam antibiotic in the presence of >32 μg/mL of a β-lactamase inhibitor) | A (an MIC of the fixed β-lactam antibiotic in the presence of >32 μg/mL of a β-lactamase inhibitor) | B (the MIC in the presence of between 8 and 32 μg/mL of a β-lactamase inhibitor)
2 | CNC1CCN(CC(=O)N[C@H]2Cc3cccc(C(=O)O)c3OB2O)CC1O (stereo partly drawn) [Example 20, 2-Hydroxy-3-[2-(3-hydroxy-4-methylamino-piperidin-1-yl)-acetylamino]-3,4-dihydro-2H-benzo[e][1,2]oxaborinine-8-carboxylic acid] | 100 to 1000 nM | 100 to 1000 nM | 1000 to 10000 nM | < 100 nM | < 100 nM | C (the MIC in the presence of <4 μg/mL of a β-lactamase inhibitor) | C (the MIC in the presence of <4 μg/mL of a β-lactamase inhibitor) | C (the MIC in the presence of <4 μg/mL of a β-lactamase inhibitor) | B (the MIC in the presence of between 8 and 32 μg/mL of a β-lactamase inhibitor) | A (an MIC of the fixed β-lactam antibiotic in the presence of >32 μg/mL of a β-lactamase inhibitor) | C (the MIC in the presence of <4 μg/mL of a β-lactamase inhibitor)
3 | COC1CN(CC(=O)N[C@H]2Cc3cccc(C(=O)O)c3OB2O)CCC1N (stereo partly drawn) [Example 21, 3-[2-(4-Amino-3-methoxy-piperidin-1-yl)-acetylamino]-2-hydroxy-3,4-dihydro-2H-benzo[e][1,2]oxaborinine-8-carboxylic acid] | < 100 nM | 100 to 1000 nM | 1000 to 10000 nM | < 100 nM | < 100 nM | C (the MIC in the presence of <4 μg/mL of a β-lactamase inhibitor) | C (the MIC in the presence of <4 μg/mL of a β-lactamase inhibitor) | C (the MIC in the presence of <4 μg/mL of a β-lactamase inhibitor) | B (the MIC in the presence of between 8 and 32 μg/mL of a β-lactamase inhibitor) | A (an MIC of the fixed β-lactam antibiotic in the presence of >32 μg/mL of a β-lactamase inhibitor) | C (the MIC in the presence of <4 μg/mL of a β-lactamase inhibitor)
4 | NC1CCN(CCC(=O)N[C@H]2Cc3cccc(C(=O)O)c3OB2O)CC1 [Example 22, 3-[3-(4-Amino-piperidin-1-yl)-propionylamino]-2-hydroxy-3,4-dihydro-2H-benzo[e][1,2]oxaborinine-8-carboxylic acid] | 100 to 1000 nM | 100 to 1000 nM | 1000 to 10000 nM | < 100 nM | 100 to 1000 nM | C (the MIC in the presence of <4 μg/mL of a β-lactamase inhibitor) | C (the MIC in the presence of <4 μg/mL of a β-lactamase inhibitor) | B (the MIC in the presence of between 8 and 32 μg/mL of a β-lactamase inhibitor) | A (an MIC of the fixed β-lactam antibiotic in the presence of >32 μg/mL of a β-lactamase inhibitor) | A (an MIC of the fixed β-lactam antibiotic in the presence of >32 μg/mL of a β-lactamase inhibitor) | C (the MIC in the presence of <4 μg/mL of a β-lactamase inhibitor)
5 | O=C(CCN1CCNCC1)N[C@H]1Cc2cccc(C(=O)O)c2OB1O [Example 23, 2-Hydroxy-3-(3-piperazin-1-yl-propionylamino)-3,4-dihydro-2H-benzo[e][1,2]oxaborinine-8-carboxylic acid] | < 100 nM | < 100 nM | 1000 to 10000 nM | < 100 nM | < 100 nM | C (the MIC in the presence of <4 μg/mL of a β-lactamase inhibitor) | C (the MIC in the presence of <4 μg/mL of a β-lactamase inhibitor) | C (the MIC in the presence of <4 μg/mL of a β-lactamase inhibitor) | B (the MIC in the presence of between 8 and 32 μg/mL of a β-lactamase inhibitor) | B (the MIC in the presence of between 8 and 32 μg/mL of a β-lactamase inhibitor) | C (the MIC in the presence of <4 μg/mL of a β-lactamase inhibitor)
6 | NC1CCN(CC(=O)N[C@H]2Cc3cccc(C(=O)O)c3OB2O)CC1O (stereo partly drawn) [Example 24, 3-[2-(4-Amino-3-hydroxy-piperidin-1-yl)-acetylamino]-2-hydroxy-3,4-dihydro-2H-benzo[e][1,2]oxaborinine-8-carboxylic acid] | 100 to 1000 nM | 100 to 1000 nM | 10000 to 100000 nM | < 100 nM | 100 to 1000 nM | C (the MIC in the presence of <4 μg/mL of a β-lactamase inhibitor) | C (the MIC in the presence of <4 μg/mL of a β-lactamase inhibitor) | B (the MIC in the presence of between 8 and 32 μg/mL of a β-lactamase inhibitor) | B (the MIC in the presence of between 8 and 32 μg/mL of a β-lactamase inhibitor) | B (the MIC in the presence of between 8 and 32 μg/mL of a β-lactamase inhibitor) | C (the MIC in the presence of <4 μg/mL of a β-lactamase inhibitor)
